Where two headings read alike, the source gives them in different places.
Test system: VSCs (hydrogen sulfide, methyl mercaptan) formed by bacteria in freshly collected human saliva
Experiment: In vitro VSC inhibition in incubated human saliva, gas chromatography of gas phase
Assay type: cell-based
Experimental: In vitro experiments were performed to test the VSC-inhibiting potential of different combinations of zinc acetate and cationic antibacterial agents.
To a 1 ml sample of freshly collected human saliva in a test tube was added 10 microliter of the solutions (mouthrinses) described below. The test tubes were closed with a stopper and incubated overnight at 37° C. A control tube which contained only saliva served as a control. It is well known that large amounts of VSCs are formed in a test tube during the latter conditions, the bacteria breaking down the salivary proteins and forming VSCs from cysteine and methionine. The VSCs in the gas phase above the incubated saliva, were measured by gas chromatography in a Shimadzu 14B instrument, and hydrogen sulfide, methyl mercaptan and di-methyl sulfide were used as standard.
The solutions to be tested were: 0.3% zinc acetate, 0.025% chlorhexidine, 0.025% cetylpyridinium chloride and 0.025% benzalkonium chlorides. Subsequently the zinc acetate was combined with each of the individual antibacterial agents. All the experiments described In this paragraph were performed on the same day under Identical conditions. The concentrations chosen were based on experience from pilot experiments with different concentrations of the zinc and antibacterial agents.
An examination was conducted to investigate whether the effect of the combinations of zinc acetate and the individual antibacterial agents represented a synergistic effect. This was performed according to the method of Behrenbaum (J.lnf. Dis. 137:122-130, 1978). The fractional inhibitory concentrations (the FIC index) was calculated based on the amounts (AUC) of hydrogen sulfide and methyl mercaptan formed under different conditions. […] The FIC index was calculated from the following formula: (A+B)/A+(A+B)/B, where A+B represents the combinations of zinc and antibacterial agent, whereas A and B alone represent the individual agents.
If the FIC Index is below 1 (<1) a synergistic effect is established. If the index is like 1 (=1) an additional effect between A and B is seen, whereas an index above 1 (>1) indicates an antagonistic effect.

[1] = 10 microliter solution added to 1 ml human saliva, incubated overnight at 37° C, low AUC = strong inhibitor, control >27 mill
[2] = 10 microliter solution added to 1 ml human saliva, incubated overnight at 37° C, low AUC = strong inhibitor, control >41 mill

CC(=O)O.CC(=O)O.NC(=N\CCCCCC/N=C(N)/N=C(\N)Nc1ccc(Cl)cc1)/N=C(\N)Nc1ccc(Cl)cc1 [CHX 0.025%, chlorhexidine acetate]
HS (hydrogen sulfide) AUC value (amount of VSC) [1]: 443 000 AUC | MM (methyl mercaptan) AUC value (amount of VSC) [2]: 355 000 AUC | Effect on HS and MM in saliva, in words (incubated human saliva, versus control): clear effect on both HS and MM in the same order of magnitude as zinc acetate

CCCCCCCCCCCCCCCC[n+]1ccccc1 [CPC 0.025%, cethylpyridinium chloride]
HS (hydrogen sulfide) AUC value (amount of VSC): 5.2 mill | MM (methyl mercaptan) AUC value (amount of VSC): 6.89 mill

CC(=O)[O-].CC(=O)[O-].[Zn+2] [Zinc Ac. 0.3%, zinc acetate]
Effect on HS and MM in saliva, in words: reduced the amount of HS much more than the amount of MM | HS (hydrogen sulfide) AUC value (amount of VSC) [1]: 150 000 AUC | MM (methyl mercaptan) AUC value (amount of VSC) [2]: 4 mill

benzalkonium chloride [Benzalk 0.025%]
HS (hydrogen sulfide) AUC value (amount of VSC) [1]: 1.4 mill | MM (methyl mercaptan) AUC value (amount of VSC) [2]: 1.7 mill

Reference: US6344184B1, “Oral composition for inhibiting oral malodor” (priority 1999, dated 2002)
